Assay results reported in PubChem BioAssay AID588355 (Sanford-Burnham Center for Chemical Genomics, 2011).
Calls of active or inactive are those of the source.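 How the source made its calls: active means IC50 below 20 µM in the confirmatory dose-response test; inactive means the rest.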

Target: Hexokinase HKDC1 (Homo sapiens) (UniProt Q2TB90)
Test: HKDC1 hexokinase inhibitors, SAR follow-up, biochemical, set 2 (AID 588355)
Conditions: recombinant HKDC1, G6PDH/diaphorase/resazurin coupled fluorescence

Chain of Hexokinase HKDC1 (Homo sapiens) (Q2TB90 whole entry, looked up): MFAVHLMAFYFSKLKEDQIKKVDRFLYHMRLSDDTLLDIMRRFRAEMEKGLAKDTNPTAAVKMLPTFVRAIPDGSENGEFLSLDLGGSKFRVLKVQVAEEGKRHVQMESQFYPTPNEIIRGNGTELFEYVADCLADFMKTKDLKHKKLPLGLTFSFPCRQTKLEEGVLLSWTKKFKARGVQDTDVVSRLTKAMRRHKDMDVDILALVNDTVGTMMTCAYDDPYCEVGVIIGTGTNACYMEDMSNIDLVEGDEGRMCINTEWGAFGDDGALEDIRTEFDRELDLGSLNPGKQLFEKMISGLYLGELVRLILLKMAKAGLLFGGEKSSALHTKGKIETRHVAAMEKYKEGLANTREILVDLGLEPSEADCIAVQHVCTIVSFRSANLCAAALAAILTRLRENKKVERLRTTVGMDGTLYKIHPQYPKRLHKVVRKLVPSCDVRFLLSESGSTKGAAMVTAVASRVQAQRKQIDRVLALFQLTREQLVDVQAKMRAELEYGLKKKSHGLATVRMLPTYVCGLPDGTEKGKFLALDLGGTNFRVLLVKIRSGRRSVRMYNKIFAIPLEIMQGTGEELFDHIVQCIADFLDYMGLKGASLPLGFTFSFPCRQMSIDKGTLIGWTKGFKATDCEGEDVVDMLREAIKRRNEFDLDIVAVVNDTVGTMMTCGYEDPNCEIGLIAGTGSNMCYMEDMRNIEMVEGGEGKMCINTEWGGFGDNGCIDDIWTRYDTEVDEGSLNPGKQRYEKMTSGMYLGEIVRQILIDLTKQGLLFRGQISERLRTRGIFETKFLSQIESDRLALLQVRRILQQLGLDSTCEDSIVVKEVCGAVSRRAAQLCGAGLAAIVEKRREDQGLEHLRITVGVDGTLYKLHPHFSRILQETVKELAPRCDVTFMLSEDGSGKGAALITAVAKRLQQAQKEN

IC50: inactive
SMILES: COc1cc2c(cc1OC)-c1cc(N3CCc4ccccc4C3)nc(=O)n1CC2
